{"source": "patent US20060069132A1", "about": "“Azolecarboxamide herbicides” (priority 2004, published 2006)", "key": {"[1]": {"test_system": "wild buckwheat", "assay": "Test F pre-/postemergence herbicide test", "type": "in vivo, Polygonum convolvulus", "conditions": "125 g ai/ha", "from_the_text": "Seeds of plant species selected from annual blugrass (Poa annua L.), blackgrass (Alopecurus myosuroides Huds.), catchweed bedstraw (Gallium aparine L.), common chickweed (Stellaria media (L.) Vill./Cyr.), downy bromegrass (Bromus tectorum L.), green foxtail (Setaria viridis (L.) Beauv.), Italian ryegrass (Lolium multiflorum Lam.), kochia (Kochia scoparia (L.). Schrad.), lambsquarters (Chenopodium album L.), littleseed canarygrass (Phalaris minor Retz.), pigweed (Amaranthus retroflexus L.), Russian thistle (Salsola kali L. ssp. Ruthenica (Iljin) Soo), wild buckwheat (Polygonum convolvulus L.), wild mustard (Sinapis arvensis L.), wild oat (Avena fatua L.), windgrass (Apera spica-venti (L.) Beauv.), winter barley (Hordeum vulgare L.), and wheat (Triticum aestivum L.) were planted and treated preemergence with test chemicals formulated in a non-phytotoxic solvent mixture which included a surfactant.\nAt the same time, plants selected from these crop and weed species were treated with postemergence applications of some of the test chemicals formulated in the same manner. Plants ranged in height from 2 to 18 cm (1- to 4-leaf stage) for postemergence treatments. Treated plants and controls were maintained in a greenhouse for 12 to 14 days, after which time all species were compared to controls and visually evaluated. […]"}, "[2]": {"test_system": "barnyardgrass (ECHCG)", "assay": "Test J Compounds 2 and 6 alone and in combination with other herbicides, foliage spray", "type": "in vivo, Echinochloa crus-galli", "set-up": "key: percentage herbicidal effect (observed)", "conditions": "applied alone", "from_the_text": "(§1) Colby's Equation was used to calculate the expected additive herbicidal effect of the mixtures of Compound 6 with Harmony® Extra (i.e. a 2:1 mixture by weight of thifensulfuron-methyl and tribenuron-methyl). Colby's Equation (Colby, S. R. “Calculating Synergistic and Antagonistic Responses of Herbicide Combinations,” Weeds, 15(1), pp 20-22 (1967)) calculates the expected additive effect of herbicidal mixtures, and for two active ingredients is of the form: Pa+b=Pa+Pb−(PaPb/100) wherein • Pa+b is the percentage effect of the mixture expected from additive contribution of the individual components, • Pa is the observed percentage effect of the first active ingredient at the same use rate as in the mixture, and • Pb is the observed percentage effect of the second active ingredient at the same use rate as in the mixture.\n(§2) Seeds of test plants consisting of barnyardgrass (ECHCG; Echinochloa crus-galli (L.) Beauv.), blackgrass (ALOMY; Alopecurus myosuroides Huds.), Surinam grass (BRADC; Urochloa decumbens (Staph) R. D. Webster, previously named Brachiaria decumbens Stapf), cocklebur (XANST, Xanthium strumarium L.), corn (ZEAMD, Zea mays L. cv. ‘Pioneer 33G26’), large crabgrass (DIGSA, Digitaria sanguinalis (L.) Scop.), giant foxtail (SETFA, Setaria faberi Herrm.), lambsquarters (CHEAL, Chenopodium album L.), morningglory (IPOCO, Ipomoea coccinea L.), pigweed (AMARE, Amaranthus retroflexus L.), velvetleaf (ABUTH, Abutilon theophrasti Medik.) wheat (TRZAS, Triticum aestivum L. cv. ‘Recital’) and wild oat (AVEFA, Avena fatua L.) were planted in Redi-Earth® planting medium (Scotts Company, 14111 Scottslawn Road, Marysville, Ohio 43041) comprising spaghnum peat moss and vermiculite. Seeds of small-seeded species were planted about 1 cm deep; larger seeds were planted about 2.5 cm deep. Plants were grown in a greenhouse using supplemental lighting to maintain a photoperiod of about 14 hours; daytime and nighttime temperatures were about 24-30° C. and 22-25° C., respectively. Balanced fertilizer was applied through the watering system. The plants were grown for 7 to 11 days so that at time of treatment the plants ranged in height from 2 to 18 cm (1- to 4-leaf stage). Treatments consisted of Compounds 2 and 6 (technical material), atrazine (90DF), terbacil (Sinbar® 80DF), hexazinone (Velpar® 75WG), diuron (Karmex® 80WP) and paraquat (Gramoxone® Extra, 37%) alone and in combination, suspended or dissolved in an aqueous solvent comprising a nonionic surfactant and applied as a foliage spray using a volume of 541 L/ha. Each treatment was triply replicated. […] Treated plants and controls were maintained in the greenhouse and watered as needed with care to not wet the foliage for the first 24 hours after treatment. The effects on the plants 15 days after treatment were visually compared to untreated controls. Plant response ratings, listed in Table J as the means of the thee replicates, are based on a scale of 0 to 100 where 0 is no effect and 100 is complete control. Also listed in Table J are the expected effects for the mixtures calculated using Colby's Equation."}, "[3]": {"test_system": "large crabgrass (DIGSA)", "assay": "Test J Compounds 2 and 6 alone and in combination with other herbicides, foliage spray", "type": "in vivo, Digitaria sanguinalis", "set-up": "key to DIGSA Obsd.: 0 = no effect, 100 = complete control", "conditions": "for DIGSA Obsd.: applied alone; for observed effect of mixture compared with additive effect expected from Colby's Equation: crabgrass, foliage spray, 15 days after treatment", "method_in_brief": "(§3)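 Postemergence greenhouse test: single or combined herbicide treatments sprayed on young plants (2–18 cm) at 541 L/ha. Percent control was judged by eye 15 days later relative to untreated controls, averaged over three replicates.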"}, "[4]": {"test_system": "Surinam grass (BRADC)", "assay": "Test J Compounds 2 and 6 alone and in combination with other herbicides, foliage spray", "type": "in vivo, Urochloa decumbens", "set-up": "key: 0 = no effect, 100 = complete control", "conditions": "applied alone", "from_the_text": "as §1, §2"}, "[5]": {"test_system": "wild oat (AVEFA)", "assay": "Test J Compounds 2 and 6 alone and in combination with other herbicides, foliage spray", "type": "in vivo, Avena fatua", "set-up": "key: 0 = no effect, 100 = complete control", "conditions": "applied alone", "from_the_text": "as §1, §2"}, "[6]": {"test_system": "blackgrass (ALOMY)", "assay": "Test J Compounds 2 and 6 alone and in combination with other herbicides, foliage spray", "type": "in vivo, Alopecurus myosuroides", "set-up": "key: 0 = no effect, 100 = complete control", "conditions": "applied alone", "method_in_brief": "as §3"}, "[7]": {"test_system": "cocklebur (XANST)", "assay": "Test J Compounds 2 and 6 alone and in combination with other herbicides, foliage spray", "type": "in vivo, Xanthium strumarium", "set-up": "key: 0 = no effect, 100 = complete control", "conditions": "applied alone", "method_in_brief": "as §3"}, "[8]": {"test_system": "corn (ZEAMD)", "assay": "Test J Compounds 2 and 6 alone and in combination with other herbicides, foliage spray", "type": "in vivo, Zea mays", "set-up": "key: percentage herbicidal effect (observed)", "conditions": "applied alone", "from_the_text": "as §1, §2"}, "[9]": {"test_system": "wheat (TRZAS)", "assay": "Test J Compounds 2 and 6 alone and in combination with other herbicides, foliage spray", "type": "in vivo, Triticum aestivum", "set-up": "key: 0 = no effect, 100 = complete control", "conditions": "applied alone", "from_the_text": "as §1, §2"}, "[10]": {"test_system": "morningglory (IPOCO)", "assay": "Test J Compounds 2 and 6 alone and in combination with other herbicides, foliage spray", "type": "in vivo, Ipomoea coccinea", "set-up": "key: 0 = no effect, 100 = complete control", "conditions": "applied alone", "from_the_text": "as §2"}, "[11]": {"test_system": "velvetleaf (ABUTH)", "assay": "Test J Compounds 2 and 6 alone and in combination with other herbicides, foliage spray", "type": "in vivo, Abutilon theophrasti", "set-up": "key: 0 = no effect, 100 = complete control", "conditions": "applied alone", "method_in_brief": "as §3"}, "[12]": {"test_system": "giant foxtail (SETFA)", "assay": "Test J Compounds 2 and 6 alone and in combination with other herbicides, foliage spray", "type": "in vivo, Setaria faberi", "set-up": "key: 0 = no effect, 100 = complete control", "conditions": "applied alone", "from_the_text": "as §2"}}, "data": [{"smiles": "CCc1nn(C(C)(C)C)cc1C(=O)Nc1cc(C(=O)N(CC)CC)ccc1F", "note": "[Compound 223]", "values": [{"measurement": "Plant response rating (0-100), Buckwheat, Wild", "setting": "[1]; Postemergence", "result": 40}, {"measurement": "Plant response rating (0-100), Buckwheat, Wild", "setting": "[1]; Preemergence", "result": 55}]}, {"smiles": "CCNC(=O)c1ccc(F)c(NC(=O)c2cc(C(C)(C)C)nn2CC)c1", "note": "[Compound 2, 3-(1,1-dimethylethyl)-1-ethyl-N-[5-[(ethylamino)carbonyl]-2-fluorophenyl]-1H-pyrazole-5-carboxamide]", "values": [{"measurement": "ECHCG Obsd.", "setting": "[2]; 62 g a.i./ha", "result": 13}, {"measurement": "ECHCG Obsd.", "setting": "[2]; 125 g a.i./ha", "result": 8}, {"measurement": "DIGSA Obsd.", "setting": "[3]; 62 g a.i./ha", "result": 5}, {"measurement": "DIGSA Obsd.", "setting": "[3]; 125 g a.i./ha", "result": 15}, {"measurement": "observed effect of mixture compared with additive effect expected from Colby's Equation", "setting": "[3]; mixture with diuron", "result": "greater than additive"}, {"measurement": "observed effect of mixture compared with additive effect expected from Colby's Equation", "setting": "[3]; mixture with terbacil", "result": "greater than additive"}, {"measurement": "BRADC Obsd.", "setting": "[4]; 62 g a.i./ha", "result": 8}, {"measurement": "BRADC Obsd.", "setting": "[4]; 125 g a.i./ha", "result": 17}, {"measurement": "AVEFA Obsd.", "setting": "[5]; 62 g a.i./ha", "result": 8}, {"measurement": "AVEFA Obsd.", "setting": "[5]; 125 g a.i./ha", "result": 15}, {"measurement": "ALOMY Obsd.", "setting": "[6]; 62 g a.i./ha", "result": 15}, {"measurement": "ALOMY Obsd.", "setting": "[6]; 125 g a.i./ha", "result": 13}, {"measurement": "XANST Obsd.", "setting": "[7]; 62 g a.i./ha", "result": 50}, {"measurement": "XANST Obsd.", "setting": "[7]; 125 g a.i./ha", "result": 58}, {"measurement": "ZEAMD Obsd.", "setting": "[8]; 62 g a.i./ha", "result": 25}, {"measurement": "ZEAMD Obsd.", "setting": "[8]; 125 g a.i./ha", "result": 65}, {"measurement": "TRZAS Obsd.", "setting": "[9]; 62 g a.i./ha", "result": 8}, {"measurement": "TRZAS Obsd.", "setting": "[9]; 125 g a.i./ha", "result": 10}, {"measurement": "IPOCO Obsd.", "setting": "[10]; 62 g a.i./ha", "result": 17}, {"measurement": "IPOCO Obsd.", "setting": "[10]; 125 g a.i./ha", "result": 27}, {"measurement": "ABUTH Obsd.", "setting": "[11]; 62 g a.i./ha", "result": 17}, {"measurement": "ABUTH Obsd.", "setting": "[11]; 125 g a.i./ha", "result": 18}, {"measurement": "SETFA Obsd.", "setting": "[12]; 62 g a.i./ha", "result": 28}, {"measurement": "SETFA Obsd.", "setting": "[12]; 125 g a.i./ha", "result": 32}]}]}
